# Experiments:
# Format in all cases: functional
# MOLT-4 = assay: Growth inhibition of human MOLT4 cells assessed as cell growth at 10 uM after 48 hrs by SRB assay; conditions: MOLT-4, 48 h, read-out: Activity
# CAKI-1 = assay: Growth inhibition of human Caki1 cells assessed as cell growth at 10 uM after 48 hrs by SRB assay; conditions: CAKI-1, 48 h, read-out: Activity
# SK-MEL-28 = assay: Growth inhibition of human SK-MEL-28 cells assessed as cell growth at 10 uM after 48 hrs by SRB assay; conditions: SK-MEL-28, 48 h, read-out: Activity
# NCI/ADR-RES [1] = assay: Growth inhibition of human NCI/ADR-RES cells assessed as cell growth at 0.1 uM after 48 hrs by SRB assay; conditions: read-out: Activity
# OVCAR-5 [2] = assay: Growth inhibition of human OVCAR5 cells assessed as cell growth at 1 mM after 48 hrs by SRB assay; conditions: OVCAR-5, 48 h, read-out: Activity
# HCT-15 [3] = assay: Growth inhibition of human HCT15 cells assessed as cell growth at 0.1 uM after 48 hrs by SRB assay; conditions: HCT-15, 48 h, read-out: Activity
# NCI/ADR-RES [4] = assay: Growth inhibition of human NCI/ADR-RES cells after 48 hrs by SRB assay
# SK-MEL-5 [5] = assay: Growth inhibition of human SK-MEL-5 cells after 48 hrs by […] growth inhibition assay; conditions: SK-MEL-5, 48 h
# CCRF-CEM [6] = assay: Growth inhibition of human CCRF-CEM cells assessed as cell growth at 10 uM after 48 hrs by SRB assay; conditions: read-out: Activity
# SF-539 = assay: Growth inhibition of human SF539 cells assessed as cell growth at 1 uM after 48 hrs by SRB assay; conditions: SF-539, 48 h, read-out: Activity
# SK-MEL-2 [7] = assay: Growth inhibition of human SK-MEL-2 cells assessed as cell growth at 1 mM after 48 hrs by SRB assay; conditions: SK-MEL-2, 48 h, read-out: Activity
# HCT-15 [8] = assay: Growth inhibition of human HCT15 cells assessed as cell growth at 1 mM after 48 hrs by SRB assay; conditions: HCT-15, 48 h, read-out: Activity
# NCI-H460 = assay: Growth inhibition of human NCI-H460 cells after 48 hrs by […] growth inhibition assay; conditions: NCI-H460, 48 h
# ACHN = assay: Growth inhibition of human ACHN cells assessed as cell growth at 0.1 uM after 48 hrs by SRB assay; conditions: read-out: Activity
# HOP-62 = assay: Growth inhibition of human HOP62 cells assessed as cell growth at 1 uM after 48 hrs by SRB assay; conditions: HOP-62, 48 h, read-out: Activity
# UACC-257 [9] = assay: Growth inhibition of human UACC257 cells assessed as cell growth at 10 uM after 48 hrs by SRB assay; conditions: UACC-257, 48 h, read-out: Activity
# HT-29 [10] = assay: Growth inhibition of human HT-29 cells assessed as cell growth at 1 uM after 48 hrs by SRB assay; conditions: HT-29, 48 h, read-out: Activity
# EKVX = assay: Growth inhibition of human EKVX cells assessed as cell growth at 1 mM after 48 hrs by SRB assay; conditions: read-out: Activity
# OVCAR-3 [11] = assay: Growth inhibition of human OVCAR3 cells assessed as cell growth at 1 mM after 48 hrs by SRB assay; conditions: OVCAR-3, 48 h, read-out: Activity
# UACC-257 [12] = assay: Growth inhibition of human UACC257 cells assessed as cell growth at 0.1 uM after 48 hrs by SRB assay; conditions: UACC-257, 48 h, read-out: Activity
# TK-10 = assay: Growth inhibition of human TK10 cells assessed as cell growth at 1 uM after 48 hrs by SRB assay; conditions: TK-10, 48 h, read-out: Activity
# SF-268 = assay: Growth inhibition of human SF268 cells assessed as cell growth at 0.1 uM after 48 hrs by SRB assay; conditions: SF-268, 48 h, read-out: Activity
# NCI-H226 [13] = assay: Growth inhibition of human NCI-H226 cells assessed as cell growth at 100 uM after 48 hrs by SRB assay; conditions: NCI-H226, 48 h, read-out: Activity
# KM12 = assay: Growth inhibition of human KM12 cells assessed as cell growth at 1 mM after 48 hrs by SRB assay; conditions: KM12, 48 h, read-out: Activity
# DU-145 = assay: Growth inhibition of human DU145 cells after 48 hrs by […] growth inhibition assay; conditions: DU-145, 48 h
# SK-MEL-2 [14] = assay: Growth inhibition of human SK-MEL-2 cells assessed as cell growth at 100 uM after 48 hrs by SRB assay; conditions: SK-MEL-2, 48 h, read-out: Activity
# OVCAR-5 [15] = assay: Growth inhibition of human OVCAR5 cells assessed as cell growth at 100 uM after 48 hrs by SRB assay; conditions: OVCAR-5, 48 h, read-out: Activity
# HT-29 [16] = assay: Growth inhibition of human HT-29 cells assessed as cell growth at 100 uM after 48 hrs by SRB assay; conditions: HT-29, 48 h, read-out: Activity
# RXF 393 = assay: Growth inhibition of human RXF393 cells assessed as cell growth at 100 uM after 48 hrs by SRB assay; conditions: RXF 393, 48 h, read-out: Activity
# CCRF-CEM [17] = assay: Growth inhibition of human CCRF-CEM cells after 48 hrs by […] growth inhibition assay
# NCI-H226 [18] = assay: Growth inhibition of human NCI-H226 cells assessed as cell growth at 0.1 uM after 48 hrs by SRB assay; conditions: NCI-H226, 48 h, read-out: Activity
# SK-MEL-5 [19] = assay: Growth inhibition of human SK-MEL-5 cells assessed as cell growth at 0.1 uM after 48 hrs by SRB assay; conditions: SK-MEL-5, 48 h, read-out: Activity
# OVCAR-3 [20] = assay: Growth inhibition of human OVCAR3 cells assessed as cell growth at 1 uM after 48 hrs by SRB assay; conditions: OVCAR-3, 48 h, read-out: Activity
# MCF7 = assay: Growth inhibition of human MCF7 cells assessed as cell growth at 1 uM after 48 hrs by SRB assay; conditions: MCF7, 48 h, read-out: Activity
# SK-OV-3 = assay: Growth inhibition of human SKOV3 cells assessed as cell growth at 1 mM after 48 hrs by SRB assay; conditions: SK-OV-3, 48 h, read-out: Activity
# [21] = read-out: LC50 (the source's name)
# [22] = read-out: pLC50 (the source's name) (converted)
structure (smiles),measurement,setting,value
CNC(=O)OC[C@H]1O[C@@H](n2cnc3c(NC(=O)Nc4ccccc4)ncnc32)[C@H](O[Si](C)(C)C(C)(C)C)[C@@H]1O[Si](C)(C)C(C)(C)C,growth at 10 µM,MOLT-4,75.3%
same,growth at 10 µM,CAKI-1,106%
same,growth at 10 µM,SK-MEL-28,102%
CNC(=O)NC[C@H]1O[C@@H](n2cnc3c(NC(=O)Nc4ccccc4)ncnc32)[C@H](O[Si](C)(C)C(C)(C)C)[C@@H]1O[Si](C)(C)C(C)(C)C,growth at 0.1 µM,NCI/ADR-RES [1],106%
same,growth at 1000 µM,OVCAR-5 [2],-43%
same,growth at 0.1 µM,HCT-15 [3],105%
same,GI50,NCI/ADR-RES [4]; read-out: GI50,3.72 µM
same,CC50,NCI/ADR-RES [4]; [21],> 100 µM
same,TGI,NCI/ADR-RES [4]; read-out: TGI,20.7 µM
same,GI50,NCI/ADR-RES [4]; read-out: pGI50 (converted),3.72 µM
same,CC50,NCI/ADR-RES [4]; [22],> 100 µM
same,TGI,NCI/ADR-RES [4]; read-out: pTGI (converted),20.9 µM
same,GI50,SK-MEL-5 [5]; read-out: GI50,1.98 µM
same,CC50,SK-MEL-5 [5]; [21],13.6 µM
same,TGI,SK-MEL-5 [5]; read-out: TGI,4.75 µM
same,GI50,SK-MEL-5 [5]; read-out: pGI50 (converted),2 µM
same,CC50,SK-MEL-5 [5]; [22],13.5 µM
same,TGI,SK-MEL-5 [5]; read-out: pTGI (converted),4.79 µM
same,growth at 10 µM,CCRF-CEM [6],101%
same,growth at 1 µM,SF-539,100%
same,growth at 1000 µM,SK-MEL-2 [7],-67%
same,growth at 1000 µM,HCT-15 [8],6%
same,GI50,NCI-H460; read-out: GI50,1.72 µM
same,CC50,NCI-H460; [21],7.11 µM
same,TGI,NCI-H460; read-out: TGI,3.49 µM
same,GI50,NCI-H460; read-out: pGI50 (converted),1.7 µM
same,CC50,NCI-H460; [22],7.08 µM
same,TGI,NCI-H460; read-out: pTGI (converted),3.47 µM
same,growth at 0.1 µM,ACHN,107%
same,growth at 1 µM,HOP-62,108%
same,growth at 10 µM,UACC-257 [9],104%
same,growth at 1 µM,HT-29 [10],104%
same,growth at 1000 µM,EKVX,-9%
same,growth at 1000 µM,OVCAR-3 [11],-50%
same,growth at 0.1 µM,UACC-257 [12],97%
same,growth at 1 µM,TK-10,113%
same,growth at 0.1 µM,SF-268,104%
same,growth at 100 µM,NCI-H226 [13],-7%
same,growth at 1000 µM,KM12,-74%
same,GI50,DU-145; read-out: GI50,2.58 µM
same,CC50,DU-145; [21],18.7 µM
same,TGI,DU-145; read-out: TGI,5.71 µM
same,GI50,DU-145; read-out: pGI50 (converted),2.57 µM
same,CC50,DU-145; [22],18.6 µM
same,TGI,DU-145; read-out: pTGI (converted),5.75 µM
same,growth at 10 µM,CAKI-1,96%
same,growth at 100 µM,SK-MEL-2 [14],-36%
same,growth at 100 µM,OVCAR-5 [15],29%
same,growth at 100 µM,HT-29 [16],-80%
same,growth at 100 µM,RXF 393,-73%
same,GI50,CCRF-CEM [17]; read-out: GI50,3.59 µM
same,"LC50 (lethal concentration, 50% net cell kill)",CCRF-CEM [17]; read-out: LC50,> 100 µM
same,TGI,CCRF-CEM [17]; read-out: TGI,> 100 µM
same,GI50,CCRF-CEM [17]; read-out: pGI50 (converted),3.63 µM
same,"LC50 (lethal concentration, 50% net cell kill)",CCRF-CEM [17]; read-out: pLC50 (converted),> 100 µM
same,TGI,CCRF-CEM [17]; read-out: pTGI (converted),> 100 µM
same,growth at 0.1 µM,NCI-H226 [18],102%
same,growth at 0.1 µM,SK-MEL-5 [19],102%
same,growth at 1 µM,OVCAR-3 [20],113%
same,growth at 1 µM,MCF7,96%
same,growth at 1000 µM,SK-OV-3,8%
